According to PMC12040169 (PLOS Biology, 2025):

Test: in vitro
Settings: human, hela cells, % viability

Row | Structure (SMILES) | viability at 28.5 h, 10 µM [%]
1 | O=C(NCc1cc(C2CC2)[nH]n1)C1(c2ccccc2F)CC1 [CBK283140] | 97.6
2 | N=C1NC(=O)C(CC(=O)Nc2ccc(SC(F)F)cc2)S1 (stereo not drawn) [CBK265648] | 91.1
3 | O=c1n(-c2ccc(OC(F)(F)F)cc2)ccn1S(=O)(=O)c1ccccc1 [CBK106655] | 95.1
4 | CC(C)c1noc(C(C)N2CCN(Cc3noc(C(C)(C)C)n3)CC2)n1 (stereo not drawn) [CBK305202] | 84.4
5 | CCCOC(=O)N(O)c1ccc(Cl)c(Cl)c1 [CBK288400] | 94.4
6 | CCc1cc(-c2[nH]nc(C)c2Oc2ccc(C(C)C)cc2)c(O)cc1O [CBK264940] | 90.7
7 | O=[N+]([O-])c1ccc(F)cc1NS(=O)(=O)c1ccccc1 [CBK000674] | 93.1
8 | CCCOCCCNS(=O)(=O)c1ccc(C(C)(C)CC)cc1 [CBK044821] | 106
9 | COc1ccc(NC(=S)NC(=O)CN2C(=O)c3ccccc3C2=O)c([N+](=O)[O-])c1 [CBK267594] | 114
10 | Cn1nccc1NS(=O)(=O)c1ccc(F)cc1 [CBK050484] | 106
11 | CN1Cc2nc[nH]c2C[C@H]1C(=O)NCc1ccco1 [CBK288979] | 88
12 | O=C(COc1ccc2ccccc2c1)N1CCN(S(=O)(=O)c2ccccc2[N+](=O)[O-])CC1 [CBK264271] | 91.8
13 | O=c1[nH]c2ncc(-c3ccc(OC(F)(F)F)cc3)nc2n1Cc1ccc(Cl)cc1 [CBK064409] | 103
14 | CCC(CNC(=O)c1cc(-c2ccco2)nc2c(C(N)=O)ncn12)c1ccccc1 (stereo not drawn) [CBK297779] | 94.2
15 | CC(=O)N1CC[C@H](c2nc3cccc(C(N)=O)c3[nH]2)C1 [CBK289415] | 98.3
16 | CC(C)n1c(NCc2ccccc2)nc2c1c(=O)n(C)c(=O)n2C [CBK140094] | 78.2
17 | CN(C)CCCNC(=O)c1cc2cc(Cl)cc(Cl)c2oc1=O [CBK269132C] | 90.2
18 | COc1ccc(N(C(C)C(=O)NN=C2CCN(C)CC2)S(C)(=O)=O)cc1 (stereo not drawn) [CBK262390] | 94.2
19 | Cc1ccc(S(=O)(=O)N(CC(=O)Nc2ccc3c(c2)OCCO3)Cc2ccccc2F)cc1 [CBK265157] | 83.3
20 | O=C(O)c1ccc(Br)c(S(=O)(=O)Nc2ccc(Cl)cc2)c1 [CBK263247] | 98
21 | N#Cc1ccc(CN2C[C@@H]3OCC(=O)N[C@@H]3C2)cc1 [CBK289261] | 103
22 | CC1(C)CC(=O)C2=C(C1)OC(=O)CC2c1ccc(Cl)cc1Cl (stereo not drawn) [CBK007777] | 93.8

Row | Structure (SMILES) | viability at 28.5 h, 10 µM [%]
23 | CCC(CC)C(=O)N1CCN(Cc2ccccc2)CCC1=O [CBK284830] | 87.9
24 | O=C(O)C(Cc1ccccc1)N1C(=O)/C(=C/C(Cl)=C/c2ccc([N+](=O)[O-])cc2)SC1=S (stereo not drawn) [CBK263523] | 95.4
25 | CC(=O)N1C[C@@H]2CCCCN(CCc3ccc(F)cc3)[C@@H]2C1 [CBK285495] | 112
26 | Cn1nc(C(C)(C)C)c2cc(C(=O)N3CCCc4occc4C3)cnc21 [CBK304713] | 97.7
27 | O=C(Nc1nc2c(s1)CCc1ccccc1-2)C1CC1 [CBK287330] | 85.3
28 | Oc1ccc2ccccc2c1/C=N/Nc1nnn[nH]1 [CBK262028] | 106
29 | O=C(NC1CC1)[C@H]1CN(Cc2ccccc2)C[C@@H]1C(=O)c1ccccc1 [CBK285264] | 105
30 | NC(=O)CO[C@@H]1CO[C@H]2[C@@H]1OC[C@@H]2NCc1ccccc1 [CBK289479] | 112
31 | O=C(C1CCC1)N1CCC(c2nnc(-c3ccsc3)o2)CC1 [CBK283405] | 104
32 | CCOC(=O)c1c(CN(C)C)n(-c2ccccc2)c2cc(Br)c(OC)cc12 [CBK115360] | 117
33 | O=C(O)c1cccc2c1C(=O)N(c1ccccc1)C2 [CBK101054] | 91.4
34 | CCn1cc(CN(CC(C)C)C(=O)c2c(C)nc3ccccn23)cn1 [CBK306862] | 97.8
35 | Cc1ccccc1NC(=O)Cc1nnc(SCC(=O)c2ccccc2)n1C [CBK269719] | 101
36 | CSc1ccc(CN(C)c2cncc(-n3cccn3)n2)cc1 [CBK298326] | 91.2
37 | COc1ccc(NC(=O)c2cc(-c3cccnc3)nc3c(C)c(C)ccc23)c(OC)c1 [CBK267746] | 96.2
38 | CCc1cc2cc3c(cc2nc1SCC(=O)Nc1cc(OC)ccc1OC)OCO3 [CBK108546] | 91.8
39 | Brc1cnc(-n2cnc3ccccc32)nc1 [CBK288546] | 84.2
40 | Cc1cc2c(cc3c(=O)n(CC(=O)NCC4CC4)nc(C)n32)s1 [CBK284097] | 96.6
41 | COc1ccccc1NC(=O)c1c(NC(=O)c2cc([N+](=O)[O-])ccc2Cl)sc2c1CCCC2 [CBK263827] | 88.7
42 | CCNC(=O)N1CCN(CCOC(c2ccc(F)cc2)c2ccc(F)cc2)CC1 [CBK024943C] | 95.6
43 | O=S(=O)(Nc1cccc(-c2nnn[nH]2)c1)c1ccc(F)cc1 [CBK050470] | 88.5
44 | Cc1c(S(=O)(=O)Nc2nnc(C(F)(F)F)s2)sc2ccc(Cl)cc12 [CBK062018] | 81.9

Row | Structure (SMILES) | viability at 28.5 h, 10 µM [%]
45 | CCc1ccccc1-c1cccc(C(=O)NCC(O)CN(C)C)c1 (stereo not drawn) [CBK306604] | 92.9
46 | c1ccc(CC2CCN(CCOc3ccccc3)CC2)cc1 [CBK126433] | 107
47 | COCC(=O)N1CCC(Cc2ccc(-c3cccc(C)c3)cc2)(C(=O)NC(C)C)CC1 [CBK285759] | 93.6
48 | CC(C)Oc1ccccc1CN(C)C(C)c1ccc(S(N)(=O)=O)cc1 (stereo not drawn) [CBK305436] | 94.4
49 | CC1(C)Cc2nc(N3CCOCC3)ncc2C(NC(=O)NC(C)(C)C)C1 (stereo not drawn) [CBK306978] | 101
50 | CC(Oc1ccc(Cl)cc1Cl)C(=O)Nc1sc2c(c1C(N)=O)CCCCCC2 (stereo not drawn) [CBK265394] | 85.8
51 | c1coc(-c2cn3ccnc3c(NCCc3ccncc3)n2)c1 [CBK037333] | 93.5
52 | COc1cc(C(N)C(=O)O)ccc1OCc1ccccc1 (stereo not drawn) [CBK286909] | 82.6
53 | COCCNS(=O)(=O)c1cc(OCC(N)=O)c(C)cc1Cl [CBK266461] | 99.3
54 | O=C(Nc1cccnc1)C1c2ccccc2Oc2ccccc21 [CBK263129] | 98.6
55 | O=C(NCc1nc2ccccc2[nH]1)c1cnc(-c2ccc(Cl)cc2)c(-c2ccco2)c1 [CBK037555] | 106
56 | CN(C)c1ncc(-c2ccc(F)cc2)c(C2CCCN2C(=O)c2nccc3ccccc23)n1 (stereo not drawn) [CBK286086] | 84.3
57 | Cc1ccc(CSCC(=O)N2CCC(Cc3ccccc3)CC2)cc1 [CBK058739] | 95.6
58 | COc1cc(OC)cc(C(=O)N[C@@H]2CC[C@@]3(c4ccc(OC)c(OC)c4)CCN(C)[C@H]3C2)c1 [CBK074242T] | 115
59 | CC(C)(C)OC(=O)N1CCN(C(=O)N[C@@H](Cc2ccccc2)C(=O)O)CC1 [CBK286785] | 113
60 | CCC1(CC)OC(NC(C)c2ccccc2F)=NC1=O (stereo not drawn) [CBK132018] | 87.1
61 | COc1ccc(C(NC(=O)CCc2ccccc2)c2ccc3cccnc3c2O)cc1 (stereo not drawn) [CBK293942] | 86
62 | CC(=O)N1CCc2sccc2C1c1ccc(NCc2ccc(F)c(F)c2)cc1 (stereo not drawn) [CBK286452] | 101
63 | O=C(Nc1ccc(NC(=O)c2cc(O)nc3ccccc23)cc1)c1ccccc1 [CBK269722] | 106
64 | O=C(c1ccc[nH]1)N1Cc2ccccc2C1 [CBK200319] | 89.4
65 | CCc1nnc(NS(=O)(=O)c2ccc(N/C=C3\C(=O)N(c4ccc(Cl)cc4)N=C3C)cc2)s1 [CBK262416] | 110
66 | Cc1ccc(-c2c(N3C(=O)c4cccnc4C3=O)n[nH]c2C)cc1 [CBK288199] | 101

Row | Structure (SMILES) | viability at 28.5 h, 10 µM [%]
67 | CN(Cc1ccncc1)C(=O)c1cccc(S(=O)(=O)NCC2CC2)c1 [CBK305365] | 95.6
68 | Nc1n[nH]c(=O)c2ncn([C@H]3C[C@@H](O)[C@@H](CO)O3)c12 [CBK201233] | 91.4
69 | COc1cc(OC)cc(C(=O)N2CCC3(CC2)NC(=O)c2ccc(OC)cc2O3)c1 [CBK166328] | 106
70 | Oc1ccc(/C=N/N=C/c2ccc(O)c(O)c2)cc1O [CBK261641] | 95
71 | CCOC(=O)C1CCCN(CCC(=O)Nc2cccc(C)c2)C1 (stereo not drawn) [CBK264158C] | 107
72 | CCNC(=O)c1c(O)nc2ccccc2c1O [CBK262450] | 103
73 | O=C(NS(=O)(=O)c1cccc(-c2nnco2)c1)C1CC1C1CCCCC1 (stereo not drawn) [CBK305924] | 90.8
74 | C=CCNC(=O)N[C@H]1[C@H](O)[C@@H](N2CCC(C(=O)OC)CC2)[C@@H]2OC[C@H]1O2 [CBK288807] | 82.1
75 | O=C1CC2(CCCC2)C(=O)N1CCNc1nccc(C(F)(F)F)n1 [CBK028777] | 97.4
76 | Cc1cc(COc2nccnc2N2CCN(Cc3ccc(C(C)C)cc3)CC2)no1 [CBK084186] | 94.9
77 | CCCC/C=C/c1cnc2[nH]c(=O)n(CC(C)C)c2n1 [CBK064225] | 96.4
78 | CN(C)CCN(C)C(=O)c1ccc(-c2ccco2)nc1N(C)C [CBK106078] | 84.1
79 | O=C(NCCCOc1ccccc1)N1CCN(S(=O)(=O)c2ccc(C(F)(F)F)cc2)CC1 [CBK296686] | 87.9
80 | Oc1cc2cccnc2nc1-c1ccccc1 [CBK073697] | 115
81 | S=C(NCCCN1CCOCC1)Nc1cccc(Cl)c1 [CBK263255] | 95
82 | Cn1nc2c(cc1=O)CN(C(=O)c1ccoc1)CC2 [CBK304330] | 119
83 | CC(C)[C@H]1CN(Cc2ccco2)CCN1C(=O)N1CCCCC1 [CBK284272] | 87.6
84 | O=C(c1cccc([N+](=O)[O-])c1)N1CCN(S(=O)(=O)N2CCOCC2)CC1 [CBK267469] | 100
85 | O=C(O)C1(c2ccc(Br)cc2)CCCC1 [CBK287134] | 87.3
86 | C#CCNC(=O)CC[C@H]1CNC(=O)[C@@H]2[C@@H](CCN2Cc2cccs2)N1C [CBK289033] | 103

Same assay, conditions: human, hela cells, % viability, bulk resorufin, single well

Row | Structure (SMILES) | viability at 28.5 h, 10 µM [%]
87 | O=C(O)COc1ccccc1/C=C1\C(=O)NC(=O)N(c2ccc(O)cc2)C1=O [CBK265436] | 85.2
